Measured values: the supplement of paper PMC13380429

Key:
Conditions in all cases: 72 h
[1] = system: Caco-2; assay: cell viability relative to DMSO; higher = less toxic
[2] = system: Calu-3; assay: as above
[3] = system: HepG2; assay: as above
[4] = system: U2OS; assay: as above
[5] = system: Vero E6; assay: as above
[6] = system: Caco-2; assay: relative viability EC50 (midpoint between 100% and the lowest measured viability); higher = less toxic
[7] = system: Calu-3; assay: as above
[8] = system: HepG2; assay: as above
[9] = system: U2OS; assay: as above
[10] = system: Vero E6; assay: as above
[11] = system: Caco-2; assay: drug sensitivity score (DSS) for viability; higher = more toxic; extreme values may be limits of the assay
[12] = system: Calu-3; assay: as above
[13] = system: HepG2; assay: as above
[14] = system: U2OS; assay: as above
[15] = system: Vero E6; assay: as above

Row | Structure (SMILES) | cell viability ([1]; 1 nM) [%] | cell viability ([1]; 10 nM) [%] | cell viability ([1]; 100 nM) [%] | cell viability ([1]; 1000 nM) [%] | cell viability ([1]; 10000 nM) [%] | cell viability ([2]; 1 nM) [%] | cell viability ([2]; 10 nM) [%] | cell viability ([2]; 100 nM) [%] | cell viability ([2]; 1000 nM) [%] | cell viability ([2]; 10000 nM) [%] | cell viability ([3]; 1 nM) [%] | cell viability ([3]; 10 nM) [%] | cell viability ([3]; 100 nM) [%] | cell viability ([3]; 1000 nM) [%] | cell viability ([3]; 10000 nM) [%] | cell viability ([4]; 1 nM) [%] | cell viability ([4]; 10 nM) [%] | cell viability ([4]; 100 nM) [%] | cell viability ([4]; 1000 nM) [%] | cell viability ([4]; 10000 nM) [%] | cell viability ([5]; 1 nM) [%] | cell viability ([5]; 10 nM) [%] | cell viability ([5]; 100 nM) [%] | cell viability ([5]; 1000 nM) [%] | cell viability ([5]; 10000 nM) [%] | relative viability EC50 [6] [µM] | relative viability EC50 [7] [µM] | relative viability EC50 [8] [µM] | relative viability EC50 [9] [µM] | relative viability EC50 [10] [µM] | drug sensitivity score [11] | drug sensitivity score [12] | drug sensitivity score [13] | drug sensitivity score [14] | drug sensitivity score [15]
1 | Clc1cccc(C(c2ccc3[nH]cnc3c2)n2ccnc2)c1 (stereo not given) [liarozole] | 97.2 | 87.8 | 98.7 | 93.9 | 85.4 | 99 | 96.1 | 93.8 | 103 | 101 | 99.6 | 104 | 99.3 | 111 | 89.3 | 97.8 | 95 | 95.5 | 93.9 | 96.3 | 94.2 | 90.5 | 94.8 | 94.8 | 95 | > 10 | > 10 | > 10 | > 10 | > 10 | 0 | 0 | 0 | 0 | 0
2 | C=CC(=O)Nc1cc(Nc2nccc(-c3c[nH]c4ccccc34)n2)c(OC)cc1N(C)CCN(C)C [AZ5104] | 89.1 | 87.6 | 81.7 | 62.1 | 24.3 | 82.8 | 56.2 | 32.5 | 33.3 | 17.4 | 98.2 | 94.2 | 84.2 | 64 | 9.2 | 104 | 95.2 | 95.4 | 59.6 | 8.6 | 88.8 | 93.8 | 61.6 | 49.7 | 0.2 | 0.563 | 0.0093 | 1.19 | 1.13 | 0.397 | 10.3 | 27.9 | 9.3 | 9.8 | 15.6
3 | CC/C=C\C/C=C\C/C=C\C/C=C\C/C=C\C/C=C\CCC(=O)OCC [doconexent-ethyl-ester] | 96.9 | 108 | 96.1 | 96.5 | 100 | 99.1 | 104 | 104 | 103 | 108 | 100 | 98.9 | 87.1 | 107 | 87.2 | 93.6 | 96.9 | 97.3 | 103 | 99.8 | 99.5 | 101 | 98.9 | 102 | 102 | > 10 | > 10 | > 10 | > 10 | > 10 | 0 | 0 | 0 | 0 | 0
4 | N#Cc1c(N(CC(=O)O)CC(=O)O)sc(C(=O)O)c1CC(=O)O [Strontium Ranelate] | 93 | 102 | 93.6 | 106 | 91.2 | 106 | 87.9 | 98.7 | 104 | 104 | 93.7 | 94.9 | 103 | 100 | 108 | 97.3 | 102 | 100 | 101 | 96.7 | 96.7 | 101 | 100 | 97.6 | 99.8 | > 10 | > 10 | > 10 | > 10 | > 10 | 0 | 0 | 0 | 0 | 0
5 | CCCCCCCCC(=O)N[C@H](CN1CCCC1)[C@H](O)c1ccc2c(c1)OCCO2 | 101 | 94.9 | 102 | 111 | 98.9 | 109 | 94.9 | 92.2 | 92 | 94.8 | 96.8 | 105 | 105 | 106 | 104 | 101 | 102 | 105 | 98.5 | 102 | 91.9 | 97.2 | 87.7 | 90.4 | 95.4 | > 10 | > 10 | > 10 | > 10 | > 10 | 0 | 0 | 0 | 0 | 0
6 | C/C=C(/C(=C/C)c1ccc(O)cc1)c1ccc(O)cc1 [dienestrol] | 112 | 96.5 | 105 | 106 | 102 | 98.1 | 91.4 | 92.4 | 84 | 95.7 | 101 | 100 | 98.4 | 110 | 95.3 | 106 | 108 | 107 | 99.9 | 109 | 101 | 107 | 101 | 104 | 94.3 | > 10 | > 10 | > 10 | > 10 | > 10 | 0 | 0 | 0 | 0 | 0
7 | C[N+]1(C)CCC(OC(=O)C(c2ccccc2)c2ccccc2)CC1 [4-DAMP] | 105 | 96.3 | 106 | 102 | 87.4 | 85.8 | 87.6 | 92.9 | 101 | 100 | 90.8 | 97 | 103 | 100 | 90.9 | 103 | 97.7 | 99.2 | 97.7 | 99.5 | 98.5 | 99.8 | 99 | 97.4 | 96 | > 10 | > 10 | > 10 | > 10 | > 10 | 0 | 0 | 0 | 0 | 0
8 | CCCCCN(CCCOC)C(=O)[C@@H](CCC(=O)O)NC(=O)c1ccc(Cl)c(Cl)c1 [dexloxiglumide] | 92.1 | 82.1 | 87.5 | 86.9 | 107 | 100 | 93.3 | 96.4 | 95.7 | 93 | 94.5 | 105 | 89.6 | 104 | 108 | 92.2 | 92.1 | 99.5 | 91.9 | 104 | 89.4 | 97.8 | 91.1 | 96.1 | 109 | > 10 | > 10 | > 10 | > 10 | > 10 | 0.1 | 0 | 0 | 0 | 0
9 | N[C@@H](CS(=O)O)C(=O)O [L-cysteinesulfinic-acid] | 96.8 | 93.2 | 102 | 105 | 101 | 94 | 97.3 | 105 | 111 | 107 | 93.5 | 90.9 | 77.8 | 89.9 | 102 | 99.5 | 97.3 | 98.5 | 106 | 101 | 91 | 95.8 | 93.2 | 95.1 | 102 | > 10 | > 10 | > 10 | > 10 | > 10 | 0 | 0 | 0.2 | 0 | 0
10 | Cc1cc(N2CCN([C@@H]3CN[C@H](C(=O)N4CCSC4)C3)CC2)n(-c2ccccc2)n1 [teneligliptin] | 104 | 97.9 | 94.3 | 101 | 90 | 104 | 108 | 92.6 | 91.9 | 102 | 101 | 106 | 98.4 | 97 | 94.7 | 95.8 | 101 | 99.5 | 100 | 98.3 | 104 | 98.9 | 101 | 99.2 | 98.2 | > 10 | > 10 | > 10 | > 10 | > 10 | 0 | 0 | 0 | 0 | 0
11 | CN1C(=O)N(c2cc(Cl)cc(Cl)c2)C(=O)[C@]12CN(c1ccc(C(=O)O)cn1)C[C@H]2c1ccc(C#N)cc1 | 93.9 | 98.4 | 97.5 | 89 | 97.3 | 104 | 90.8 | 93.7 | 111 | 107 | 104 | 93.1 | 91.5 | 96.9 | 106 | 98.8 | 96.5 | 100 | 101 | 94.4 | 99.4 | 102 | 101 | 93.7 | 103 | > 10 | > 10 | > 10 | > 10 | > 10 | 0 | 0 | 0 | 0 | 0
12 | CC(=O)N(C)c1cc(-c2ccnc3c(C(=O)c4cccs4)cnn23)ccc1F [lorediplon] | 100 | 93.9 | 87.5 | 95.1 | 88.1 | 90.8 | 106 | 98.6 | 104 | 99.6 | 94 | 107 | 95.6 | 96.1 | 80 | 99.2 | 97 | 97 | 96.7 | 96.6 | 97.9 | 98.9 | 93.9 | 96.3 | 91 | > 10 | > 10 | > 10 | > 10 | > 10 | 0.3 | 0 | 1.1 | 0 | 0
13 | CCCc1nc2c(C)cc(-c3nc4ccccc4n3C)cc2n1Cc1ccc(-c2ccccc2C(=O)O)cc1 [telmisartan] | 89.5 | 97.3 | 90.7 | 90.6 | 87.5 | 92.9 | 97.9 | 102 | 102 | 108 | 94.2 | 95.1 | 103 | 99.8 | 111 | 97.3 | 105 | 97.5 | 98.9 | 98.6 | 100 | 95.9 | 96 | 92.9 | 96.6 | > 10 | > 10 | > 10 | > 10 | > 10 | 0 | 0 | 0 | 0 | 0
14 | N=C(N)NC(=O)Cc1c(Cl)cccc1Cl [guanfacine] | 93.9 | 95.7 | 110 | 104 | 100 | 92.7 | 83.6 | 98.9 | 91.7 | 99.1 | 88.5 | 95.2 | 93.3 | 94 | 101 | 102 | 93.1 | 104 | 97.4 | 100 | 93.8 | 105 | 101 | 104 | 89.8 | > 10 | > 10 | > 10 | > 10 | > 10 | 0 | 0 | 0 | 0 | 0
